Measurements published in ChEMBL document CHEMBL4673322, “Discovery and optimization of a potent and selective indazolamine series of IRAK4 inhibitors” (Bioorg Med Chem Lett, 2021).
In brackets after ≈: the same amount, converted by molar mass. Values belong to the compound of their own block, whether it stands above or below them.

Experiments:
[1] = Metabolic stability in human liver microsomes assessed as intrinsic clearance; assay type: ADME, Microsome; details: read-out: CLH
[2] = Cmax in Sprague-Dawley rat at 5 mg/kg, po; assay type: ADME, organism-based; design: route oral, dose 5 mg/kg; details: in vivo
[3] = Metabolic stability in rat liver microsomes assessed as intrinsic clearance; assay type: ADME, Microsome; details: read-out: CLH
[4] = Metabolic stability in mouse liver microsomes assessed as intrinsic clearance; assay type: ADME, Microsome; details: read-out: CLH
[5] = AUC in Sprague-Dawley rat at 5 mg/kg, po; assay type: ADME, organism-based; design: dose 5 mg/kg; details: in vivo
[6] = Oral bioavailability in Sprague-Dawley rat at 5 mg/kg; assay type: ADME, organism-based; details: in vivo
[7] = Half life in Sprague-Dawley rat at 5 mg/kg, po; assay type: ADME, organism-based; details: in vivo
[8] = AUC(0 to 24 hrs) in mouse at 1 mg/kg, iv; assay type: ADME, organism-based; design: time < 24 hr, route intravenous, dose 1 mg/kg; details: in vivo
[9] = AUC (0 to 24 hrs) in Sprague-Dawley rat at 10 mg/kg, po; assay type: ADME, organism-based; design: time < 24 hr, route oral, dose 10 mg/kg; details: in vivo
[10] = Volume of distribution at steady state in dog at 0.5 mg/kg, iv; assay type: ADME, organism-based, Canis lupus familiaris; details: in vivo, read-out: Vdss
[11] = Half life in dog at 2 mg/kg, po; assay type: ADME, organism-based, Canis lupus familiaris; details: in vivo
[12] = AUC (0 to 24 hrs) in dog at 0.5 mg/kg, iv; assay type: ADME, organism-based, Canis lupus familiaris; design: time < 24 hr, route intravenous, dose 0.5 mg/kg; details: in vivo
[13] = Half life in mouse at 1 mg/kg, iv; assay type: ADME, organism-based; details: in vivo
[14] = Clearance in dog at 0.5 mg/kg, iv; assay type: ADME, organism-based, Canis lupus familiaris; details: in vivo
[15] = Volume of distribution at steady state in monkey at 0.5 mg/kg, iv; assay type: ADME, organism-based, Macaca mulatta; details: rhesus monkey, in vivo, read-out: Vdss
[16] = Half life in dog at 0.5 mg/kg, iv; assay type: ADME, organism-based, Canis lupus familiaris; details: in vivo
[17] = Oral bioavailability in dog at 2 mg/kg; assay type: ADME, organism-based, Canis lupus familiaris; details: in vivo
[18] = Clearance in mouse at 1 mg/kg, iv; assay type: ADME, organism-based; details: in vivo
[19] = Cmax in Sprague-Dawley rat at 10 mg/kg, po; assay type: ADME, organism-based; design: route oral, dose 10 mg/kg; details: in vivo
physchem = details: FaSSIF, pH 6.5
Description: Solubility in FassIF at pH 6.5

in vivo = details: Sprague-Dawley, rat, iv, 1 mg/kg
Description: Clearance in Sprague-Dawley rat at 1 mg/kg, iv

[20] = Half life in monkey at 0.5 mg/kg, iv; assay type: ADME, organism-based, Macaca mulatta; details: rhesus monkey, in vivo
[21] = AUC (0 to 24 hrs) in dog at 2 mg/kg, po; assay type: ADME, organism-based, Canis lupus familiaris; design: time < 24 hr, route oral, dose 2 mg/kg; details: in vivo
[22] = Apparent permeability across apical to basolateral side; assay type: ADME; details: not told
[23] = Metabolic stability in human Hepatocyte assessed as half life; assay type: ADME, tissue-based; details: hepatocytes
[24] = Half life in Sprague-Dawley rat at 10 mg/kg, po; assay type: ADME, organism-based; details: in vivo
[25] = Metabolic stability in monkey liver microsomes assessed as intrinsic clearance; assay type: ADME, Macaca mulatta, Microsome; details: rhesus monkey, read-out: CLH
[26] = Apparent permeability across basolateral to apical side; assay type: ADME; details: not told
[27] = AUC (0 to 24 hrs) in monkey at 0.5 mg/kg, iv; assay type: ADME, organism-based, Macaca mulatta; design: time < 24 hr, route intravenous, dose 0.5 mg/kg; details: rhesus monkey, in vivo
[28] = Clearance in monkey at 0.5 mg/kg, iv; assay type: ADME, organism-based, Macaca mulatta; details: rhesus monkey, in vivo
[29] = Oral bioavailability in monkey at 2 mg/kg; assay type: ADME, organism-based, Macaca mulatta; details: rhesus monkey, in vivo
[30] = Protein binding in human plasma; assay type: ADME, cell-free; details: read-out: PPB (converted)
[31] = Metabolic stability in dog liver microsomes assessed as intrinsic clearance; assay type: ADME, Canis lupus familiaris, Microsome; details: read-out: CLH
[32] = AUC(0 to 24 hrs) in mouse at 2 mg/kg, po; assay type: ADME, organism-based; design: time < 24 hr, route oral, dose 2 mg/kg; details: in vivo
[33] = AUC (0 to 24 hrs) in monkey at 2 mg/kg, po; assay type: ADME, organism-based, Macaca mulatta; design: time < 24 hr, route oral, dose 2 mg/kg; details: rhesus monkey, in vivo
[34] = Half life in monkey at 2 mg/kg, po; assay type: ADME, organism-based, Macaca mulatta; details: rhesus monkey, in vivo
[35] = Oral bioavailability in mouse at 2 mg/kg; assay type: ADME, organism-based; details: in vivo
[36] = Volume of distribution at steady state in mouse at 1 mg/kg, iv; assay type: ADME, organism-based; details: in vivo, read-out: Vdss

CLint scaled [1]: 1.28 mL/min/kg
Cmax [2]: 2310 ng/mL
CLint scaled [3]: 3.11 mL/min/kg
CLint scaled [4]: 3.91 mL/min/kg
AUC [5]: 18400 ng·h/mL
bioavailability [6]: 84%
half-life [7]: 3.6 h
Compound: CC(C)(O)CCn1cc2cc(NC(=O)c3cccc(C(F)(F)F)n3)c(C(C)(C)O)cc2n1

Compound: CN(C)CCn1cc2cc(NC(=O)c3cccc(C(F)(F)F)n3)c(C(C)(C)O)cc2n1
AUC(0-t) at 24 h [8]: 966 ng·h/mL
CLint scaled [1]: 5.25 mL/min/kg
AUC(0-t) at 24 h [9]: 11900 ng·h/mL
Vd [10]: 2.63 L/kg
half-life [11]: 6.4 h
AUC(0-t) at 24 h [12]: 148 ng·h/mL
half-life [13]: 1.62 h
clearance [14]: 55.6 mL/min/kg
CLint scaled [3]: 15 mL/min/kg
CLint scaled [4]: 8.82 mL/min/kg
Vd [15]: 0.67 L/kg
half-life [16]: 0.72 h
bioavailability [17]: 14.4%
clearance [18]: 17.1 mL/min/kg
Cmax [19]: 2110 ng/mL
solubility (physchem): 92.3 µM (≈ 40.2 µg/mL)
clearance (in vivo): 8.3 mL/min/kg
half-life [20]: 1.96 h
AUC(0-t) at 24 h [21]: 85.3 ng·h/mL
Papp A→B [22]: 27.3 ×10⁻⁶ cm/s
half-life [23]: 9.72 h
half-life [24]: 3.3 h
CLint scaled [25]: 1.96 mL/min/kg
Papp B→A [26]: 22.7 ×10⁻⁶ cm/s
AUC(0-t) at 24 h [27]: 1870 ng·h/mL
clearance [28]: 4.86 mL/min/kg
bioavailability [29]: 49%
fraction unbound [30]: 0.014
CLint scaled [31]: 116 mL/min/kg
AUC(0-t) at 24 h [32]: 1300 ng·h/mL
AUC(0-t) at 24 h [33]: 3670 ng·h/mL
half-life [34]: 3.5 h
bioavailability [35]: 67.3%
Vd [36]: 2.43 L/kg

AUC(0-t) at 24 h [9]: 34500 ng·h/mL
Cmax [19]: 3320 ng/mL
clearance (in vivo): 5.5 mL/min/kg
half-life [24]: 3.5 h
Compound: COc1cc(NC(=O)c2cccc(C(F)(F)F)n2)cc2cn(CCC(C)(C)O)nc12
